{
  "source": "patent US20150368220A1",
  "about": "“PHARMACEUTICAL COMPOSITION FOR TREATING OR PREVENTING STRESS URINARY INCONTINENCE OR MIXED URINARY INCONTINENCE, AND METHOD FOR SCREENING COMPOUND COMPRISED IN SAID PHARMACEUTICAL COMPOSITION” (Astellas Pharma Inc., priority 2012, published 2015)",
  "key": {"isolated urethra": {"test_system": "isolated urethra", "test": "Urethra contracting action using isolated urethra (Example 3)", "conditions": "isolated urethra of SD female rat, cumulative 10^-5 M to 10^-12 M, FIGS. 6 and 7", "protocol": "The urethra was isolated from an SD female rat having a body weight of 100 g to 500 g. The isolated urethra was incised vertically and then made into strip-shaped specimens having a width of about 3 mm. The specimens were suspended in a 10 mL tissue bus filled with a Krebs—Henseleit solution (pH 7.4) in the circular muscle direction. The Krebs—Henseleit solution was aerated at 95% O2 and 5% CO2, and warmed at 37° C. The resting tension was set to 0.5 g and the isometric contraction was recorded. After the resting tension was stabilized, a 10 μM phenylephrine solution was added thereto to cause contraction."}, "isolated uterus": {"test_system": "isolated uterus", "test": "Isolated uterus contraction (Example 6)", "conditions": "isolated uterus of SD female rat", "text": "(§1) (1) The bladder and uterus were isolated from an SD female rat having a body weight of 100 g to 500 g. For the isolated bladder, the parts below the parietal region and the triangular portion were resected to make only the body portion into a ring state, and further, one side of the tissue in the ring state was cut to a band-shaped tissue. The bladder in the band shape was isolated parallel to the median axis of the bladder to prepare strip-shaped specimens having a length of about 10 mm and a width of about 3 mm. The specimens were suspended in a 10 mL tissue bus filled with a Krebs-Henseleit solution (pH 7.4) at a resting tension of 0.5 g and the isometric contraction was recorded. For the isolated uterus, the edge portion of the uterus was cut and incised vertically, whereby a strip-shaped specimen having a width of about 6 mm was then prepared. The specimens were suspended in a 10 mL tissue bus filled with a Krebs—Henseleit solution (pH 7.4) at a resting tension of 0.5 g and the isometric contraction was recorded. […] For the bladder specimen, after the resting tension was stabilized, a 60 mM KCl solution or a 10 μM carbachol solution was added thereto to cause contraction. The specimens were washed and stabilized, and then the compounds were cumulatively administered."}, "human MT1 receptor": {"target": "T1, human MT1 receptor (Homo sapiens, UniProt P48039)", "T1 construct": "expressed in transfected cells; vector pCDNA3.1/Zeo; co-transfected with a Gq/i chimeric G protein expression vector", "T1 sequence (P48039 whole entry)": "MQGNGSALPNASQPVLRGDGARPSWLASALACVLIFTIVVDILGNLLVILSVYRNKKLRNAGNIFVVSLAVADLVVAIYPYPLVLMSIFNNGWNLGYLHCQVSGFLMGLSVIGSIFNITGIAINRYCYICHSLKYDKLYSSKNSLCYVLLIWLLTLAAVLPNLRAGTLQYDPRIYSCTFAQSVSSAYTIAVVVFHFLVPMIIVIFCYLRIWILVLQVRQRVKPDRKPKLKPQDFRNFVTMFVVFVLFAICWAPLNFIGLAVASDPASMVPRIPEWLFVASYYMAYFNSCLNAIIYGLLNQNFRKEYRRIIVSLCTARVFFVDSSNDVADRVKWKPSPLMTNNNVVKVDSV", "test": "Intracellular Ca2+ concentration by FLIPR in human MT1 receptor expressing cells (Example 2)", "type": "cell-based", "conditions": "human MT1 receptor expressing HEK293 cells, 10^-5 M to 10^-12 M, FIGS. 2 and 4", "protocol": "(§2) The expression vectors for human MT1 and MT2 receptors were introduced into HEK293 cells, together with a Gq/i chimeric G protein expression vector, respectively. The incorporation was carried out in accordance with instructions, using a Lipofectoamine (registered trademark) 2000 Reagent (Invitrogen Inc.). Using Zeocin and hygromycin as a resistant agent, the cells were cultured for 15 days in the presence of 0.02 mg/mL and 0.05 mg/mL of the agents, respectively, thereby acquiring a drug-resistant clone.\n(§3) The respective stably expressing cells were dispensed into 96 wells in a poly-D-lysine-coated plate (Falcon) the day before the experiment to give 40,000 cells/well, and cultured in a DMEM (Invitrogen Inc.) medium containing 10% FBS at 37° C. and 5% CO2 overnight. The medium was replaced with a loading buffer (a washing solution containing 4 μM Fluo-4AM (Dojindo Co.) (Hank's balanced salt solution (HBSS), 20 mM HEPES-NaOH, 2.5 mM probenecid)) and cultured at 37° C. and 5% CO2 for 1 hour."}, "isolated bladder": {"test_system": "isolated bladder", "test": "Isolated bladder contraction (Example 6)", "conditions": "isolated bladder of SD female rat, cumulative addition", "text": "as §1"}, "SD female rat [1]": {"test_system": "SD female rat", "test": "Effect on rat blood pressure (Example 6)", "type": "in vivo", "conditions": "intravenous, at a dose for increasing the urethral pressure, FIGS. 21 and 22", "text": "An SD female rat was anesthetized with urethane and allowed to undergo laparotomy, and then a catheter was mounted in the bladder dome for urine leakage in the bladder. Further, a catheter was mounted in the femoral vein for the administration of a compound and a catheter was mounted in the carotid artery for the measurement of blood pressure described in Example 6 as described later. A microchip transducer catheter (Milar Instruments) was inserted toward the bladder from the external urethral meatus for the measurement of the urethral pressure, and fixed such that the transducer portion was positioned around the portion at which the urethral pressure was maximized (10.0 mm to 15.0 mm from the external urethral meatus). The catheter mounted in the carotid artery was attached to a pressure transducer and the blood pressure was measured.\n(2) In the experiment for measuring the urethral pressure in Example 4, the blood pressure was measured simultaneously. After the urethral pressure and the blood pressure were stabilized, the compound was administered and a change in the blood pressure was measured."}, "SD female rat [2]": {"test_system": "SD female rat", "test": "Effect on urethral pressure, microchip method (Example 4)", "type": "in vivo", "conditions": "intravenous, anesthetized SD female rat, FIGS. 8 and 9", "text": "An SD female rat was anesthetized with urethane and allowed to undergo laparotomy, and then a catheter was mounted in the bladder dome for urine leakage in the bladder. Further, a catheter was mounted in the femoral vein for the administration of a compound and a catheter was mounted in the carotid artery for the measurement of blood pressure described in Example 6 as described later. […] The catheter mounted in the carotid artery was attached to a pressure transducer and the blood pressure was measured."}, "SD female rat [3]": {"test_system": "SD female rat", "test": "Effect on urethral pressure, perfusion method (Example 4)", "type": "in vivo", "conditions": "intravenous, anesthetized SD female rat, FIGS. 10 to 14", "protocol": "An SD female rat was anesthetized with urethane and allowed to undergo laparotomy, the bladder dome was then incised, and a catheter having a barb at the tip was inserted toward the urethra from the bladder, and ligated and fixed such that the tip of the catheter was positioned around the proximal urethra. Physiological saline was injected at a predetermined flow rate into the urethra through the catheter and the urethral pressure was measured with a pressure transducer. After the urethral pressure was stabilized, compounds dissolved in physiological saline, or physiological saline containing 5% N,N-dimethylacetamide(DMA) and 0.5% Cremophor were intravenously administered at a dose of 1 μg/kg, 10 μg/kg, 100 μg/kg, or 1000 μg/kg and a change in the urethral pressure was measured."}, "human MT2 receptor": {"target": "T2, human MT2 receptor (Homo sapiens, UniProt P49286)", "T2 construct": "expressed in transfected cells; vector pCDNA3.1/Zeo; co-transfected with a Gq/i chimeric G protein expression vector", "T2 sequence (P49286 1-362)": "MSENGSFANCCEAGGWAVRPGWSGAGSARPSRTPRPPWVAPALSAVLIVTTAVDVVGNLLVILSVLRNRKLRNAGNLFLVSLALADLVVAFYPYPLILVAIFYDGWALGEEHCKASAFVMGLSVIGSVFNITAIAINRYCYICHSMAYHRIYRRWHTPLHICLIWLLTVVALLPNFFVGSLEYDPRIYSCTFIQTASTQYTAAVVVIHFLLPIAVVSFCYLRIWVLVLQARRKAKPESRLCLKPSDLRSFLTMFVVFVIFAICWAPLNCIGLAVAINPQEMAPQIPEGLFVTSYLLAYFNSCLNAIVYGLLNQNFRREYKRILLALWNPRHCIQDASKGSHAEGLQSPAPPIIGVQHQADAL", "test": "Intracellular Ca2+ concentration by FLIPR in human MT2 receptor expressing cells (Example 2)", "type": "cell-based", "conditions": "human MT2 receptor expressing HEK293 cells, 10^-5 M to 10^-12 M, FIGS. 3 and 5", "protocol": "as §2, §3"}},
  "data": [
    {"smiles": "CCC(=O)NCC[C@@H]1CCc2ccc3c(c21)CCO3", "note": "[ramelteon, (S)-N-[2-(1,6,7,8-tetrahydro-2H-indeno[5,4-b]furan-8-yl)ethyl]propionamide]", "values": [
      {"measurement": "urethra contracting action", "setting": "isolated urethra", "value": "contracted the isolated urethra"},
      {"measurement": "effect on the rhythmic contraction of the isolated uterus", "setting": "isolated uterus; FIG. 20", "value": "did not have an effect"},
      {"measurement": "contraction action on the isolated uterus", "setting": "isolated uterus; cumulative 10^-5 M to 10^-11 M", "value": "did not exhibit a contraction action"},
      {"measurement": "intracellular Ca^2+ concentration (melatonin receptor activating action)", "setting": "human MT1 receptor", "value": "increased"},
      {"measurement": "contraction action on the isolated bladder", "setting": "isolated bladder", "value": "did not exhibit a contraction action"},
      {"measurement": "effect on blood pressure (mean blood pressure)", "setting": "SD female rat [1]", "value": "did not increase the blood pressure"},
      {"measurement": "urethral pressure increasing action", "setting": "SD female rat [2]", "value": "increased the urethral pressure"},
      {"measurement": "urethral pressure increasing action", "setting": "SD female rat [3]", "value": "increased the urethral pressure"},
      {"measurement": "intracellular Ca^2+ concentration (melatonin receptor activating action)", "setting": "human MT2 receptor", "value": "increased"}
    ]}
  ]
}
